{
  "source": "patent US11326131B2",
  "about": "“Cleaning composition” (AMITY LIMITED, priority 2008, dated 2022)",
  "system": "polio virus",
  "type": "cell-based",
  "details": "tested on its own",
  "data": [
    {"smiles": "CCCCCCCCCCCCN(CCCN)CCCN", "note": "[dodecyl dipropylene triamine, Dodecyl dipropylene triamine]", "values": [
      {"measurement": "effect against the polio virus", "result": "no effect"}
    ]}
  ]
}
